In patent US20160220567A1, “COMPOSITION FOR TREATING OR PREVENTING BONE DISEASES, COMPRISING HALOFUGINONE AS ACTIVE INGREDIENT” (THE CATHOLIC UNIVERSITY OF KOREA INDUSTRY-ACADEMIC …, priority 2013, published 2016):

How the values were obtained:
osteoclasts = assay: Cell cycle during osteoclast differentiation by 7-AAD and BrdU staining; assay type: cell-based, mouse; conditions: FIG. 5D
Source text: Murine bone marrow cells were differentiated for 5 days by stimulating with M-CSF, RANKL, and halofuginone and subjected to TRAP staining according to the method described in Example <1-8> to confirm the number of TRAP positive cells. Additionally, the expression of c-Fos, JunB, and Jpd2 in the bone marrow cells were confirmed by real-time PCR according to the method described in Example <1-6>. Meanwhile, to examine the effect of halofuginone on cell cycle during the process of osteoclast differentiation, osteoclasts were subjected to 7-AAD and BrdU staining.

IL-17 and IL-6 = assay: Inflammatory cytokines IL-17 and IL-6 in joint tissue staining / sera ELISA of CIA mice; assay type: in vivo, mouse; conditions: FIG. 1C
Description: (§1) For the construction of a mouse model with collagen-induced arthritis (hereinafter, referred to as “CIA”), a 6-week old male DBA/1J mouse was subjected to primary immunization by intradermal injection after mixing the bovine type II collagen (hereinafter, referred to as “CII”) and complete Freud's adjuvant (CFA) in an amount of 100 μL, respectively. After a week thereafter, halofuginone was injected intraperitoneally at 3 day intervals at a concentration of 100 μg/kg and 500 μg/kg, respectively (9 weeks).

[1] = test system: joint tissue of mouse with arthritis; assay: Degree of joint destruction by immunohistochemical staining of CIA mouse joints; assay type: in vivo; conditions: CIA mice, according to the concentration of treatment, FIG. 1B
Description: as §1
To examine the therapeutic effect of treating halofuginone of the present invention on arthritis, the mouse prepared in Example <1-1> (the mouse with arthritis injected with halofuginone) was sacrificed and the degree of joint destruction was analyzed via immunohistochemical staining method. The group treated with a solution in which DMSO was diluted in saline was used as the control group.
The immunohistochemical staining method was performed by the process shown below. The joints of the mice group used above were collected, fixed with 10% neutral buffered formalin, the bones were decalcified with EDTA and embedded in paraffin, the joint tissue was prepared into 7 μm-thick slices and attached to slides. […] The immunohistochemical staining method was used in the joints of mice and analyzed under an optical microscope. […]

[2] = test system: CD4 T cells isolated from human peripheral blood; assay: Expression of IL-17 and Foxp3 by flow cytometer in human T cells; assay type: cell-based; conditions: condition of differentiating Th17 cells, flow cytometry, FIG. 6A
Description: The CD4 T cells isolated from human peripheral blood were treated with halofuginone under the condition of differentiating Th17 cells (anti-CD3 (0.5 μg/mL), anti-CD28 (0.5 μg/mL), anti-IFN-γ (10 μg/mL), anti-IL-4 (10 μg/mL), IL-6 (20 ng/mL), and IL-1β (10 ng/mL)) and cultured. Then, the cells were collected, washed with the FACs buffer for flow cytometry analysis, subjected to blocking at 4° C. for the inhibition of non-specific binding for 15 minutes, added with CD4 and CD25 (i.e., cell surface markers) along with anti-CD4-PerCP and anti-CD25-APC and reacted at 4° C. for 30 minutes, and washed with a perm wash buffer. After performing the Cytofix/cytoperm process at 4° C. for 20 minutes, the resultant was washed with the perm wash buffer. Anti Foxp3-FITC and anti IL-17 PE were added thereto, reacted at 4° C. for 30 minutes, and washed with the perm wash buffer. Upon completion of staining, the cells were analyzed using the fluorescentactivated cell sorter (FACs) regarding the expression levels of IL-17 cytokines and Foxp3 according to the halofuginone treatment.

[3] = test system: TRAP, NFATc1, b3 integrin, OSCAR, cathepsin K, and MMP9 mRNA; assay: Real-time PCR of factors associated with osteoclast differentiation in bone marrow cells of arthritis animal model; assay type: in vivo, mouse; conditions: bone marrow cells of CIA mice, RANKL treatment, FIG. 4C
Description: as §1
The real-time PCR was performed using the LightCycler 2.0 System Instrument and the reaction compounds were prepared by mixing 1 μL of each cDNA, 10 μL of premix Ex Taq as an enzyme for the initiation, and each primer pair to a final volume of 20 μL using distilled water. The reaction conditions were: reacted at 95° C. for 10 minutes, followed by a total of 50 cycles consisting of denaturation at 95° C. for 10 seconds, annealing at 60° C. for 5 seconds, and extension at 72° C. for 10 seconds. The values of cycle threshold (Ct) were analyzed and the amount of mRNA expression for each target was indicated in terms of the amount of beta-actin mRNA expression and the relative quantity. The primers used are shown below.
Accordingly, the present inventors isolated bone marrow cells from the joint of the animal model with arthritis, cultured the cells under the stimulation of M-CSF and RANKL for 7 days, and subjected them to TRAP staining using the leukocyte acid phosphatase Kit (387-A, Sigma, St. Louis, Mo., USA) according to the manufacturer's manual.
The primers used are shown below.

[4] = test system: osteoclasts from murine bone marrow cells; assay: Bone resorption potential by osteoclasts on Dentine slice, murine bone marrow cells; assay type: cell-based, mouse; conditions: M-CSF, RANKL, 21 days, FIG. 5B
Description: To examine the effect of halofuginone on the bone resorption potential by osteoclasts, murine bone marrow cells were cultured in Dentine slice, and the cultured cells were stimulated with M-CSF, RANKL, and halofuginone, and cultured for 21 additional days. Then, the cells were removed using 5% sodium hypochlorite solution, subjected to Hematoxylin staining, and the bone resorption lacunae formed by the bone resorption of osteoclasts were photographed.

O=C(C[C@H]1NCCC[C@@H]1O)Cn1cnc2cc(Br)c(Cl)cc2c1=O (racemic) [halofuginone]
progress from G0/G1 into S phase (osteoclasts; 7-AAD and BrdU staining): increased
expression of ccnd1 encoding Cyclin D1 (osteoclasts): increased
level of inflammatory cytokine IL-6 (IL-17 and IL-6): significantly decrease
level of inflammatory cytokine IL-17 (IL-17 and IL-6): significantly decrease
joint destruction [1]: significantly decrease
number of Th17 cells [2]: reduces
number of Treg cells [2]: increasing
mRNA expression level of MMP9 [3]: decreased
mRNA expression level of NFATc1 [3]: decreased
mRNA expression level of OSCAR [3]: decreased
mRNA expression level of TRAP [3]: decreased
mRNA expression level of b3 integrin [3]: decreased
mRNA expression level of cathepsin K [3]: decreased
bone resorption potential [4]: significantly reduced
